{
  "source": "patent US20090158455A1",
  "about": "“COMPOSITIONS AND METHODS FOR MODULATING LYSINE PRODUCTION” (priority 2005, published 2009)",
  "key": {"[1]": {"tested_on": "maize LL-DAP transaminase", "assay": "Inhibitors of LL-DAP transaminase, ortho aminobenzaldehyde assay", "format": "biochemical, maize (Zea mays)", "settings": "substrate LL-DAP 0.5 mM", "method": "(§1) For enzyme assays of crude proteins, extracts were prepared by grinding tissue in liquid nitrogen with 100 mM HEPESKOH (pH 7.6), followed by centrifugation at 10,000 g for 15 min, and then buffer exchange using an Amicon Ultra 30,000 MWCO filter. […] Reactions were incubated at 30° C. and the ΔA (440 nm) measured continuously. […] The reaction was incubated at 30° C., and the decrease in A340 was measured. […] The reaction was run to completion, determined by monitoring the increase in A340. […] The kinetic constants were calculated by nonlinear regression analysis using GraphPad Prizm version 4.03.\n(§2) Assays for assessing the ability of certain compounds to inhibit LL-DAP aminotransferase have been performed and the results are shown below in Table V. The reactions were performed as described above."}, "[2]": {"biological_target": "A. thaliana LL-DAP transaminase (Arabidopsis thaliana, UniProt Q93ZN9)", "sequence (Q93ZN9 40-461)": "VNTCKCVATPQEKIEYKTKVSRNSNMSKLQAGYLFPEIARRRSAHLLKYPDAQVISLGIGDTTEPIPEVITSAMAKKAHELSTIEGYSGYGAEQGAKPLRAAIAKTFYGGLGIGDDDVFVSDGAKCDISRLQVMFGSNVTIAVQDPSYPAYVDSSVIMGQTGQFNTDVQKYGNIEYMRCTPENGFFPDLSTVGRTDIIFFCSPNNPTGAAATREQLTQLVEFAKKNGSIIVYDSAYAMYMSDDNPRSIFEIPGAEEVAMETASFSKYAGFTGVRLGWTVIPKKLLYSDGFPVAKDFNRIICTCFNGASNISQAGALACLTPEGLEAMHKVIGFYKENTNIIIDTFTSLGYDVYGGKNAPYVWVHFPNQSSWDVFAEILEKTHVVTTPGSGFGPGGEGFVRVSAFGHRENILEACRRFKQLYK", "assay": "Inhibitors of LL-DAP transaminase, m-DAP dehydrogenase coupled assay", "format": "biochemical", "settings": "inhibitor 40 mM, substrate LL-DAP 0.05 mM", "method": "as §1, §2"}, "CT390 [3]": {"biological_target": "T1, CT390 (Chlamydia trachomatis serovar D, UniProt O84395)", "T1 construct": "His-Tag (N); made in house; host or cells: E. coli", "T1 sequence (O84395 whole entry)": "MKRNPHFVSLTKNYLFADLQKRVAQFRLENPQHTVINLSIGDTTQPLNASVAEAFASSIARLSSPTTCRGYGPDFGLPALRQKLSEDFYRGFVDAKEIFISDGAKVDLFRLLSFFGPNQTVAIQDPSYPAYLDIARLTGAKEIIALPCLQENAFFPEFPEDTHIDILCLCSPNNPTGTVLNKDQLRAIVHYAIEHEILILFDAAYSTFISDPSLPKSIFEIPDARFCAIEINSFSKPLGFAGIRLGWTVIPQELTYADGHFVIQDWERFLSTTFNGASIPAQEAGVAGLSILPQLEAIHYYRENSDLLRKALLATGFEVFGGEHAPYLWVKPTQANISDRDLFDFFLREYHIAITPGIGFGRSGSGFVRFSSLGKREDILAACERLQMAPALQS", "assay": "Quantitative reverse assay of pure CT390", "format": "biochemical", "settings": "for Km: reverse assay, apparent Km; for Use as amino donor by CT390: reverse direction"}, "[4]": {"biological_target": "Methanothermobacter thermautotrophicus LL-DAP transaminase MTH52 (Methanothermobacter thermautotrophicus, UniProt O26158)", "sequence (O26158 whole entry)": "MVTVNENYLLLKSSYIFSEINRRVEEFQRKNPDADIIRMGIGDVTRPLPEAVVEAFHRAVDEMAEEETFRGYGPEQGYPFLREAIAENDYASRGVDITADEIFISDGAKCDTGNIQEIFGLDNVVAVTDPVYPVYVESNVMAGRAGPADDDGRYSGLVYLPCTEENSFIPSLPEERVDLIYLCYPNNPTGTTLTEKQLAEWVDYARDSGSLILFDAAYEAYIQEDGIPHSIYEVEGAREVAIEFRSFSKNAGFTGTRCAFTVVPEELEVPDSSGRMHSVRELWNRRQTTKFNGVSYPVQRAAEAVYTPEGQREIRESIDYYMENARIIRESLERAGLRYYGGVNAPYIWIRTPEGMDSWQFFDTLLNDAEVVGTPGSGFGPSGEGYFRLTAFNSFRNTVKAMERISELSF", "assay": "Quantitative forward and reverse assays of purified LL-DAP transaminases (Example III)", "settings": "reverse assay", "quoted_text": "This plasmid was transformed into E. coli BL21-CodonPlus®-RIPL for expression and purification of the recombinant protein.\nFor protein expression the E. coli strains were grown on LB at 37° C. to an OD600 nm of 0.5 and protein expression was then induced with 1 mM IPTG for 4 hr at 25° C. Cells were lysed by sonication in a solution of 50 mM sodium phosphate and 300 mM NaCl (pH 8.0). Metabolites in the extract were removed by buffer exchange using an Amicon Ultra 30,000 MWCO ultrafilter and sodium phosphate/NaCl buffer, and the concentrated soluble protein sample was used for measurement of enzyme activity as an initial assessment of enzyme function. When the recombinant protein was to be purified a larger cell culture was grown and lysed as described above, but the buffer exchange step was not carried out. […] The pure protein was then concentrated in an Amicon Ultra 30,000 MWCO ultrafilter, replacing the elution buffer with 100 mM HepesKOH, pH 7.6."}, "CT390 [5]": {"biological_target": "T1, CT390", "assay": "Quantitative forward assay of pure CT390", "format": "biochemical", "settings": "apparent Km", "method": "All enzyme assays were carried out essentially as described in Example I. Incubation temperature was 30° C. Kinetic constants were determined by varying substrate concentrations while keeping the co-substrate level constant at the concentration described below. Kinetic data were analyzed by non-linear regression analysis using GraphPad Prizm Version 4.03.\nQuantitative assay of the physiologically forward reaction was carried out sequentially in a pre-reaction to generate THDP from m-DAP followed by an LL-DAP aminotransferase assay. […] The pre-reaction was run to completion, monitored by the increase in absorbance at 340 nm resulting from NADPH formation. The aminotransferase reaction was monitored at 398 nm to measure the formation of thioNADH. […] Subsequently, the aminotransferase assay was initiated by addition of CT390, bringing the total reaction volume to 1 mL."}, "[6]": {"biological_target": "Arabidopsis thaliana LL-DAP-AT (At4g33680), wild type, recombinant (lacks first 39 amino acids, hexa-His and S-TAG), SEQ ID NO: 7 (Arabidopsis thaliana, UniProt Q93ZN9)", "sequence (Q93ZN9 40-461)": "as the sequence (Q93ZN9 40-461) above", "assay": "Quantitative coupled reverse and forward assays of pure recombinant LL-DAP-AT (Table III)", "format": "biochemical", "method": "as §1\nFor this reason quantitative coupled assays were developed to assess the enzyme activity in both the reverse and forward directions. […] The reaction sequence is shown in Scheme 1.\nThe overall reaction series is shown in Scheme 2.\nThio-NADH has an absorbance maximum at 398 nm, which can be discerned from NADPH, which has an absorbance maximum at 340 nm. FIG. 4 illustrates such a reaction. […] Two plots are shown using 0.55 and 0.055 mM m-DAP."}, "Arabidopsis LL-DAP-AT": {"biological_target": "T2, Arabidopsis LL-DAP-AT (Arabidopsis thaliana, UniProt Q93ZN9)", "T2 construct": "The protein extract was prepared from Arabidopsis leaves by grinding in liquid nitrogen; from tissue; host or cells: Arabidopsis leaves / axenically grown plants, crude soluble extract", "T2 sequence (Q93ZN9 46-461)": "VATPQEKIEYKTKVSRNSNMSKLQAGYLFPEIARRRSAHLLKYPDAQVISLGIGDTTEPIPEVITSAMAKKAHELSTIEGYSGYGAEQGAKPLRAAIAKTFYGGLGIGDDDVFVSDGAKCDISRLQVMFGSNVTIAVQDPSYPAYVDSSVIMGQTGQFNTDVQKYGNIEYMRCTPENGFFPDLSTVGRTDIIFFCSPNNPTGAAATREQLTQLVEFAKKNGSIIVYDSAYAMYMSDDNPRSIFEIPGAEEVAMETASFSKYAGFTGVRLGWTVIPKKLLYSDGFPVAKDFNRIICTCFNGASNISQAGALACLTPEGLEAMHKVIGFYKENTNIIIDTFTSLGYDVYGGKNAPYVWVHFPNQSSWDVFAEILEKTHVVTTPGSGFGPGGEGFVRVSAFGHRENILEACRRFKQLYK", "assay": "OAB assay of LL-DAP-AT activity in Arabidopsis leaf extract", "format": "biochemical", "settings": "added at 1,000-fold excess over LL-DAP; data not shown", "method": "FIGS. 2A and 2B. LL-DAP-AT activity in Arabidopsis. […] The reaction was incubated at 30° C. The protein extract was prepared from Arabidopsis leaves by grinding in liquid nitrogen with 100 mM HEPESKOH (pH 7.6), centrifugation at 10,000 g for 15 min, and buffer exchange using an Amicon Ultra 30,000 MWCO filter.\nas §1\nThe rate of the reaction was directly proportional to the amount of protein extract added (FIG. 2B). […] If the extract was heated in a boiling water bath for 5 min, the activity was completely destroyed. […] Moreover, since the source material was axenically grown, the activity must have been derived from the Arabidopsis rather than a contaminating microorganism."}, "AGD2 protein (At4g33680)": {"biological_target": "AGD2 protein (At4g33680) (Arabidopsis thaliana, UniProt Q93ZN9)", "sequence (Q93ZN9 46-461)": "as above", "settings": "transamination of Lys, Song et al. (2004); cited from earlier work"}, "LL-DAP transaminase [7]": {"tested_on": "LL-DAP transaminase", "assay": "Quantitative forward assay of purified microbial LL-DAP transaminases", "format": "biochemical", "method": "(§3) Enzyme assays were performed as described above in Examples I and II.\n(§4) The catalytic properties of sll0480, BF2643, Dhaf—3980, MTH52, and SfumDRAFT0821 were studied in greater detail using purified enzymes to determine their kinetic constants using quantitative forward and reverse assays."}, "LL-DAP transaminase [8]": {"tested_on": "LL-DAP transaminase", "assay": "Quantitative reverse assay of purified microbial LL-DAP transaminases", "format": "biochemical", "settings": "reverse", "method": "as §3, §4"}, "LL-DAP transaminase [9]": {"biological_target": "T3, LL-DAP transaminase (Synechocystis sp., UniProt Q55828)", "T3 construct": "His-Tag; made in house; host or cells: E. coli BL21-CodonPlus-RIPL", "T3 sequence (Q55828 whole entry)": "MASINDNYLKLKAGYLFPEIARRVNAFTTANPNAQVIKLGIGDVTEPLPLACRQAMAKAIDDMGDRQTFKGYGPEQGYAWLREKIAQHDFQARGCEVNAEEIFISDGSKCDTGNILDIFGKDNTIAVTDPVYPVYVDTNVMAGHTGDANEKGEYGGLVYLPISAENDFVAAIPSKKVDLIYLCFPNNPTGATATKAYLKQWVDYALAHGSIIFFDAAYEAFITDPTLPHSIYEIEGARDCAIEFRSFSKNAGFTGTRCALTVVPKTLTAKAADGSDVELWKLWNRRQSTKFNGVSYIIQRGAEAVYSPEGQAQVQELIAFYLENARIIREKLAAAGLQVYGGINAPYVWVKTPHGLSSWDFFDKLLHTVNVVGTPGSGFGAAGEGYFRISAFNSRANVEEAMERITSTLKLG", "assay": "Quantitative reverse assay of purified microbial LL-DAP transaminases", "format": "biochemical", "settings": "keto acids (5 mM) substituted for 2-oxoglutarate in reverse and for THDPA in forward reaction", "method": "as §3, §4"}},
  "data": [
    {"compound": "NC(CCCCC(=O)O)C(=O)O", "note": "(racemic) [L, D-α-aminopimelate]", "values": [
      {"measurement": "Inhibition %", "setting": "[1]; inhibitor 5 mM", "result": "50+ %"},
      {"measurement": "Inhibition %", "setting": "[1]; inhibitor 10 mM", "result": "83+ %"}
    ]},
    {"compound": "NC(CCC(O)C(N)C(=O)O)C(=O)O", "note": "(racemic) [Threo-β-hydroxy DAP (racemic), Threo-β-hydroxy DAP]", "values": [
      {"measurement": "inhibition at 40000 µM", "setting": "[2]", "result": 68, "unit": "%"}
    ]},
    {"compound": "O=C(O)CCC(=O)C(=O)O", "note": "[2-OG, 2-oxoglutarate, reference compound]", "values": [
      {"measurement": "Km", "setting": "CT390 [3]", "result": 650, "unit": "µM"}
    ]},
    {"compound": "O=C(O)CCC(=O)C(=O)O", "note": "[2-OG, 2-oxoglutarate]", "values": [
      {"measurement": "Km", "setting": "[4]", "result": 800, "unit": "µM"}
    ]},
    {"compound": "N[C@@H](CCC(=O)O)C(=O)O", "note": "[Glu, glutamate, reference compound]", "values": [
      {"measurement": "Km", "setting": "CT390 [5]", "result": 1000, "unit": "µM"}
    ]},
    {"compound": "N[C@@H](CCC[C@H](N)C(=O)O)C(=O)O", "note": "[LL-DAP, LL-2,6-diaminopimelate]", "values": [
      {"measurement": "Km for LL-DAP lower than the value for Lys", "setting": "[6]; compared with Km of 58.8 mM for Lys of Song et al. (2004)", "result": 830, "unit": "fold"},
      {"measurement": "Kcat", "setting": "[6]; reverse assay, pH 7.5, 30° C.", "result": 17.6, "unit": "s⁻¹"},
      {"measurement": "Km", "setting": "CT390 [3]", "result": 20, "unit": "µM"}
    ]},
    {"compound": "NCCCC[C@H](N)C(=O)O", "note": "[Lys, lysine]", "values": [
      {"measurement": "Inhibition of the use of LL-DAP (LL-DAP-AT activity)", "setting": "Arabidopsis LL-DAP-AT", "result": "did not inhibit"},
      {"measurement": "Km", "setting": "AGD2 protein (At4g33680)", "result": 58800, "unit": "µM"},
      {"measurement": "Use as amino donor by CT390", "setting": "CT390 [3]", "result": "unable to use"}
    ]},
    {"compound": "O=C(O)C1=N[C@H](C(=O)O)CCC1", "note": "[THDPA, L-2,3,4,5-tetrahydrodipicolinate]", "values": [
      {"measurement": "Kcat", "setting": "[6]; forward assay, pH 7.5", "result": 0.3, "unit": "s⁻¹"},
      {"measurement": "Km", "setting": "CT390 [5]", "result": 200, "unit": "µM"}
    ]},
    {"compound": "N[C@@H](CCSC[C@H](N)C(=O)O)C(=O)O", "note": "[cystathionine]", "values": [
      {"measurement": "Use as amino donor by CT390", "setting": "CT390 [3]", "result": "unable to use"}
    ]},
    {"compound": "NC(CCCC(N)C(=O)O)C(=O)O", "note": "(centres unmarked) [m-DAP, m-2,6-diaminopimelate]", "values": [
      {"measurement": "Inhibition of the use of LL-DAP (LL-DAP-AT activity)", "setting": "Arabidopsis LL-DAP-AT", "result": "did not inhibit"},
      {"measurement": "Use as amino donor by CT390", "setting": "CT390 [3]", "result": "able to use"}
    ]},
    {"compound": "Mth52: LL-DAP transaminase from M. thermoautotrophicum", "values": [
      {"measurement": "Vmax F", "setting": "LL-DAP transaminase [7]", "result": 0.6, "unit": "µmol/min/mg"},
      {"measurement": "Km", "setting": "LL-DAP transaminase [8]; read-out: Km 2-OG, substrate 2-OG", "result": 800, "unit": "µM"},
      {"measurement": "Vmax R", "setting": "LL-DAP transaminase [8]", "result": 4.7, "unit": "µmol/min/mg"}
    ]},
    {"compound": "sII0480: LL-DAP transaminase from Synechocystis sp.", "values": [
      {"measurement": "Vmax F", "setting": "LL-DAP transaminase [7]", "result": 0.25, "unit": "µmol/min/mg"},
      {"measurement": "Vmax R", "setting": "LL-DAP transaminase [8]", "result": 3.3, "unit": "µmol/min/mg"},
      {"measurement": "Keto acid specificity", "setting": "LL-DAP transaminase [9]", "result": "active only with 2-oxoglutarate or THDPA"}
    ]}
  ]
}
